Source: US11931451B2, “Skin lightening compounds from fruit seed extracts” (WiSys Technology Foundation, Inc., priority 2016, dated 2024)

Tests used:
[1] = tested on: tyrosinase enzyme (from mushroom); test: Tyrosinase inhibition assay (L-DOPA to dopachrome, absorbance at 475 nm); format: biochemical; details: 0.001-1 mg/mL, FIGS. 11-12
Experimental: Extracts were tested for their ability to inhibit the enzyme tyrosinase. This enzyme catalyzes the air oxidation of L-DOPA (colorless) to the compound dopachrome, which is a highly colored intermediate in the production of melanin. The dopachrome molecule absorbs strongly at 475 nm. So, measuring the rate of change of absorption at this wavelength using UV/visible spectroscopy can easily assess the enzyme's activity. The tyrosinase enzyme (from mushroom) was purchased from Sigma-Aldrich as a lyophilized powder with an activity of 5771 units per mg of solid (a unit of activity is defined as the rate at which the enzyme catalyzes the reaction of a standard substrate at a standard concentration). […] Next, the enzyme solution was added (500 μL), the cuvette was covered with a piece of Parafilm and inverted twice to thoroughly mix the solutions, and immediately after the cuvette was placed in a UV/visible spectrometer and absorbance was measured at 475 nm every second for 60 seconds. The slope of the line formed by graphing change in absorbance versus time gave the rate in units of AA/second. […] Percentage inhibition values were calculated by taking the rate of the blank run with no inhibitor minus the rate of the inhibited sample and then dividing that value by the blank rate and multiplying by 100. […]

[2] = Solubility of extracts and reference compounds in solvents / assay medium; format: physicochemical
Source text: A 2.5 gram sample of a red raspberry seed extract in a dry powder form was split into two fractions, one combined 1.25 grams of the dry extract with 11.25 grams of water to create a 10% aqueous solution of the extract. […] Combining 1.25 grams of the dry extract with about 11.25 grams of Isopropyl alcohol (91%) produced an about 10% alcohol solution.
Using pure water was explored in extraction experiments with cranberry seed powder. The advantages of using water were essentially zero cost and toxicity. […] The limitations of using water were that it gave quite low yields in extractions at room temperature and only dissolved the most polar compounds from the seed powders, leaving most of the medium polarity materials behind. It is possible that this could be improved by heating. […] Simply filtering the mixture through inexpensive filter paper by gravity or mild vacuum was unsuccessful. One solution that worked was mixing in filtering media (diatomaceous earth) and then vacuum filtering through a bed of the same filtering medium. To completely clarify the mixture, an additional treatment with activated carbon and further vacuum filtering through a bed of diatomaceous earth was effective. Given the limitations of water extraction, it was not used extensively. One exception was the use of sodium hydroxide solutions in water to extract pomegranate seed powder, which contained significant amounts of the targeted compound ellagic acid. […] Therefore, 1 M aqueous sodium hydroxide solution was used to extract this material from pomegranate seed powder. After filtering away the solid seed material the solution was acidified to pH=4 by addition of 1 N HCl. A small amount of solid developed, which was filtered with some difficulties.
The extracts in Tables 2 and 3, prepared from 70:30 methanol/water, were tested for their ability to inhibit tyrosinase at concentrations of 1.0 mg/mL, 0.1 mg/mL, 0.01 mg/mL, and in some cases 0.001 mg/mL. For comparison several other known tyrosinase inhibitors including kojic acid, alpha-arbutin, beta-arbutin, hydroquinone, and quercetin were tested. Kojic acid is often used in tyrosinase inhibition studies as a benchmark inhibitor for comparison with other inhibitors. I included beta-arbutin and hydroquinone due to their relevance in skin whitening applications. Additionally, several commercial skin whitening agents were also tested. These included a product called Radian Skin from BASF, and an arbutin material sold by the company Presperse. […] Even highly dilute samples of ellagic acid were not sufficiently soluble. […] Finally, a mixture of red raspberry and tomato extracts (FIG. 10) was tested to look for possible synergistic effects in mixtures on two quite different materials. […]

| SMILES | tyrosinase inhibition strength (in words, from dose-response curves) [1] | solubility (medium not stated) [2] | solubility in water ([2]; high pH) | solubility in water ([2]; neutral pH) | solubility in the enzyme assay ([2]; tyrosinase assay medium) |
| --- | --- | --- | --- | --- | --- |
| O=c1cc(CO)occ1O [kojic acid] | strongest inhibitor |  |  |  |  |
| O=c1oc2c(O)c(O)cc3c(=O)oc4c(O)c(O)cc1c4c23 [ellagic acid] |  | highly insoluble | very water soluble | only slightly soluble | highly insoluble |
| O=c1c(O)c(-c2ccc(O)c(O)c2)oc2cc(O)cc(O)c12 [quercetin] | considerably more potent than the others |  |  |  |  |
